We go through 12 compounds from patent US8912206B2, “Pyrimidine ether derivatives and methods of use thereof” (Merck Sharp & Dohme Corp., priority 2009, dated 2014).

In the assay the target is T1, human GPR119 (Homo sapiens, UniProt Q8TDV5).
T1 construct: expressed in transfected cells; host or cells: HEK293
T1 sequence (Q8TDV5 1-335): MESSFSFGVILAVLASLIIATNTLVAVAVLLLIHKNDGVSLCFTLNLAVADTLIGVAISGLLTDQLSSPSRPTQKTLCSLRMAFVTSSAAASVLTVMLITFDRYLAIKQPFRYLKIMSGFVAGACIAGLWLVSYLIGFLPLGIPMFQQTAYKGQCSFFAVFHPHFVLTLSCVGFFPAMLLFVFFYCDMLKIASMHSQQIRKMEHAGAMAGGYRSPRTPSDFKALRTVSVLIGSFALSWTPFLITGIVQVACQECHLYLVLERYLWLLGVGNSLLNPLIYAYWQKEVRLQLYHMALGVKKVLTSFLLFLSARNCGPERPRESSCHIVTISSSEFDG
Nature of the assay: cAMP assay (LANCE cAMP kit), activation of GPR119. Type of assay: cell-based. The following applies: HEK293 cells expressing human GPR119, 30 minutes incubation. The procedure: The ability of illustrative compounds of the invention to activate GPR119 and stimulate increases in cAMP levels was determined using the LANCE™ cAMP kit (Perkin Elmer). HEK293 cells expressing human GPR119 were maintained in culture flasks at 37° C./5% CO2 in DMEM containing 10% fetal bovine serum, 100 U/ml Pen/Strep, and 0.5 mg/ml geneticin. The media was changed to Optimem and cells were incubated for about 15 hours at 37° C./5% CO2. The Optimem was then aspirated and the cells were removed from the flasks using room temperature Hank's balanced saline solution (HBSS). The cells were pelleted using centrifugation (1300 rpm, 7 minutes, room temperature), then resuspended in stimulation buffer (HBSS, 0.1% BSA, 5 mM HEPES, 15 μM RO-20) at 2.5×10^6 cells/mL. Alexa Fluor 647-anti cAMP antibody (1:100) was then added to the cell suspension and incubated for 30 minutes. A representative Pyrimidine Ether Derivative (6 μl at 2× concentration) in stimulation buffer containing 2% DMSO were then added to white 384 well Matrix plates. Cell suspension mix (6 μl) was added to each well and incubated with the Pyrimidine Ether Derivative for 30 minutes. A cAMP standard curve was also created in each assay according to the kit protocol. Standard concentrations of cAMP in stimulation buffer (6 μl) were added to white 384 well plates. Subsequently, 6 μl of 1:100 anti-cAMP antibody was added to each well. Following the 30 minute incubation period, 12 μl of detection mix (included in kit) was added to all wells and incubated for 2-3 hours at room temperature. Fluorescence was detected on the plates using an Envision instrument. The level of cAMP in each well is determined by extrapolation from the cAMP standard curve.
For `CC(C)(C)OC(=O)N1CCC(Oc2ncnc(OC3C4COCC3CN(C(=O)OC3(C)CC3)C4)c2F)CC1` (stereo not drawn) [Compound 1], the EC50 – broadly, the concentration needed to bring the measured effect to its halfway point – lay within 500 to 1000 nM.
With `CC1(OC(=O)N2CC3COCC(C2)C3Oc2ncnc(OC3CCN(S(C)(=O)=O)CC3)c2F)CC1` (stereo not drawn) [Compound 2], the EC50 lay within 100 to 200 nM.
For the compound `CC1(OC(=O)N2CC3COCC(C2)C3Oc2ncnc(OC3CCN(S(=O)(=O)CCC(F)(F)F)CC3)c2F)CC1` (stereo not drawn) [Compound 3], the EC50 is under 100 nM.
`CC1(OC(=O)N2CC3COCC(C2)C3Oc2ncnc(OC3CCN(S(=O)(=O)C4CC4)CC3)c2F)CC1` (stereo not drawn) [Compound 4] gave an EC50 of 100 to 200 nM.
As to `CC(C)S(=O)(=O)N1CCC(Oc2ncnc(OC3C4COCC3CN(C(=O)OC3(C)CC3)C4)c2F)CC1` (stereo not drawn) [Compound 5], the half-maximal effective concentration (EC50) was under 100 nM.
To `CC1(OC(=O)N2CC3COCC(C2)C3Oc2ncnc(OC3CCN(S(=O)(=O)C(F)(F)F)CC3)c2F)CC1` (stereo not drawn) [Compound 6] belongs 500 to 1000 nM.
Compound `CC1(OC(=O)N2CC3COCC(C2)C3Oc2ncnc(OC3CCN(S(=O)(=O)C4CCCC4)CC3)c2F)CC1` (stereo not drawn) [Compound 7] displayed an EC50 of 100 to 200 nM.
`COCCS(=O)(=O)N1CCC(Oc2ncnc(OC3C4COCC3CN(C(=O)OC3(C)CC3)C4)c2F)CC1` (stereo not drawn) [Compound 8] showed an EC50 of 100 to 200 nM.
With `CC(C)C(=O)N1CCC(Oc2ncnc(OC3C4COCC3CN(C(=O)OC3(C)CC3)C4)c2F)CC1` (stereo not drawn) [Compound 9], the EC50 fell in the range of 500 to 1000 nM.
Take `CS(=O)(=O)N1CCC(Oc2ncnc(OC3C4COCC3CN(c3ncc(Cl)cn3)C4)c2F)CC1` (stereo not drawn) [Compound 10]: the EC50 was under 100 nM.
With `CCCS(=O)(=O)N1CCC(Oc2ncnc(OC3C4COCC3CN(C(=O)OC3(C)CC3)C4)c2F)CC1` (stereo not drawn) [Compound 11], the EC50 was under 100 nM.
With `CCS(=O)(=O)N1CCC(Oc2ncnc(OC3C4COCC3CN(C(=O)OC3(C)CC3)C4)c2F)CC1` (stereo not drawn) [Compound 12], the 50% effective concentration (EC50) is under 100 nM.
